Reference: patent US10421778B2, “Isoform-selective lysine deacetylase inhibitors” (WASHINGTON UNIVERSITY, priority 2015, dated 2019)
pEC50, pIC50: −log10 of the molar value. Like-named read-outs stand apart in the source and are kept apart here.

What was measured:
[1] = target: T1, recombinant human KDAC3 (Homo sapiens, UniProt O15379); assay: KDAC inhibition assay, Caliper EZ Reader II; format: biochemical; details: for KDAC Inhibition Activity KDAC3 (% inhibition): % inhibition at 30 μM
T1 construct: purchased BPS Bioscience

[2] = target: T2, recombinant human KDAC6 (Homo sapiens, UniProt Q9UBN7); assay: KDAC inhibition assay, Caliper EZ Reader II; format: biochemical; details: for KDAC Inhibition Activity KDAC6 (% inhibition): % inhibition at 30 μM
T2 construct: purchased BPS Bioscience
T2 sequence (Q9UBN7 1-1215): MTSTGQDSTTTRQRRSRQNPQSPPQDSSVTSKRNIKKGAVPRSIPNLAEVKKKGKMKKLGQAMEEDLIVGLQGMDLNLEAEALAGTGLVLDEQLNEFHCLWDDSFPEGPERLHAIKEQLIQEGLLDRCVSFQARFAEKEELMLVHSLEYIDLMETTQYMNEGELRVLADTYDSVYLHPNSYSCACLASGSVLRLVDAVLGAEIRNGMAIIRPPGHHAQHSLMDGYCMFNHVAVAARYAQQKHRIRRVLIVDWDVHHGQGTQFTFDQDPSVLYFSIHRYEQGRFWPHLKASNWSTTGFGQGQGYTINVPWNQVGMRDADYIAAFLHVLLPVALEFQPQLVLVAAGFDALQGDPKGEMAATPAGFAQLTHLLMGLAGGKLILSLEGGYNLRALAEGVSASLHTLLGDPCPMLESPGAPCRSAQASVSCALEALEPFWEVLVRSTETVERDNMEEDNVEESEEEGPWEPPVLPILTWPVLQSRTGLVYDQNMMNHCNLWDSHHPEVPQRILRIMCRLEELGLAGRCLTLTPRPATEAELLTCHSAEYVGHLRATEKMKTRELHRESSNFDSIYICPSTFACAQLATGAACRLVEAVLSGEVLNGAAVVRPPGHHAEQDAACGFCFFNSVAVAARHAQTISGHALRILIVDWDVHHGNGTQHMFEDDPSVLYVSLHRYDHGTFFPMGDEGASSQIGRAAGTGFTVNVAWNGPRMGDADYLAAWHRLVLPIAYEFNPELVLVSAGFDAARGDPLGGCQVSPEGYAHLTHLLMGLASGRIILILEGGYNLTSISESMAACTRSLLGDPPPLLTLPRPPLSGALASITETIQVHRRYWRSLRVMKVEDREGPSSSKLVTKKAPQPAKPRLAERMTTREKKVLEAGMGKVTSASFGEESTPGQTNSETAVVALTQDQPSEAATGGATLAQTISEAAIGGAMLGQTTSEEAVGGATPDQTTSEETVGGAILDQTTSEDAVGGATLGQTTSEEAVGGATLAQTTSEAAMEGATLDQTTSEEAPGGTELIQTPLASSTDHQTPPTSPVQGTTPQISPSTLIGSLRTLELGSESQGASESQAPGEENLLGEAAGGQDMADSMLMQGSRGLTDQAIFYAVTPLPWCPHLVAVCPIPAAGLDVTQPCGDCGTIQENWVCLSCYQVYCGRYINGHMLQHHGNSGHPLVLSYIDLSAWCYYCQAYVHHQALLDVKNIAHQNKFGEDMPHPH

[3] = tested on: JLAT 10.6 cells, which have HIV-1-GFP stably integrated; assay: Reactivation of HIV from latency in JLAT 10.6 cells (GFP, FACS); format: cell-based; details: J-Lat 10.6, 24 h, read-out: EC50 in reactivating HIV from latency
Procedure: JLAT 10.6 cells, which have HIV-1-GFP stably integrated, were incubated with the indicated compounds for 24 hours. […] Upon stimulation with an appropriate agent, they can produce HIV as measured by GFP recognition with fluorescent-activated cell sorting (FACS). Cells were fixed and FACS performed for GFP as a surrogate for HIV production using TNF alpha as positive control. Largazoles are SDL256, JMF 1080, and SDL148. Relative activation is normalized to TNF alpha.

[4] = target: T3, recombinant human KDAC8 (Homo sapiens, UniProt Q9BY41); assay: KDAC inhibition assay, Caliper EZ Reader II; format: biochemical; details: for KDAC Inhibition Activity KDAC8 (% inhibition): % inhibition at 30 μM
T3 construct: purchased BPS Bioscience
T3 sequence (Q9BY41 1-377): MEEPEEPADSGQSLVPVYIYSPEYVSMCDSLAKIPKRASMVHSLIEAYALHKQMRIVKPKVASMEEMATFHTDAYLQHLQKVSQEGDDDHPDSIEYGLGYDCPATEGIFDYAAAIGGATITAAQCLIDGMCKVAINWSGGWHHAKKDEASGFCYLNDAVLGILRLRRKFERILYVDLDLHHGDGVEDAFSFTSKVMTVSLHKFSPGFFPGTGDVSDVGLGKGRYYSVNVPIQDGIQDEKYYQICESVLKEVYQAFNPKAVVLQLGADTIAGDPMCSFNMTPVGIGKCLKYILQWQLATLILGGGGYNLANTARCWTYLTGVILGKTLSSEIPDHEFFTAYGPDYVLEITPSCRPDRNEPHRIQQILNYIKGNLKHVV

[5] = target: T4, recombinant human KDAC1 (Homo sapiens, UniProt Q13547); assay: KDAC inhibition assay, Caliper EZ Reader II; format: biochemical; details: for KDAC Inhibition Activity KDAC1 (% inhibition): % inhibition at 30 μM
T4 construct: purchased BPS Bioscience

[6] = tested on: Resting CD4+ T cells isolated from a patient fully suppressed on antiretroviral therapy; assay: Reactivation of virus in resting CD4+ T cells of a suppressed patient (HIV-1 p24 ELISA); format: cell-based; details: 1 μM, 48 hours, then co-culture with MOLT4/CCR5 cells 7 days; preliminary data
Text: Cells were washed and co-cultured with MOLT4/CCR5 cells for 7 days. R Cellular supernatants were collected for HIV-1 p24 ELISA. N.R—non reactive.

[7] = tested on: KDAC1, KDAC2, and KDAC3; details: background statement; cited from earlier work

T1 sequence (O15379 whole entry): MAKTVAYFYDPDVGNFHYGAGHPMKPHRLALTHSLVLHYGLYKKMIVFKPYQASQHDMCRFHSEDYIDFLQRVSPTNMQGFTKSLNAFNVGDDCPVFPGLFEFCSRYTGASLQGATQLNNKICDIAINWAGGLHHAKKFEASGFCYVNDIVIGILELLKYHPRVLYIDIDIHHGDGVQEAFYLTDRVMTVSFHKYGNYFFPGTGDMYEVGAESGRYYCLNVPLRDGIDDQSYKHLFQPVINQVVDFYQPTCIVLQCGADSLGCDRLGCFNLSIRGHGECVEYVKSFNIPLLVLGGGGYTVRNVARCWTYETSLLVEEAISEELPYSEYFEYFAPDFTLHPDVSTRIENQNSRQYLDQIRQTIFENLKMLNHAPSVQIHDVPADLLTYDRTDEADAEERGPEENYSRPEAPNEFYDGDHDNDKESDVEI
T1 sequence (Q9Y618 395-489 partner limits assumed): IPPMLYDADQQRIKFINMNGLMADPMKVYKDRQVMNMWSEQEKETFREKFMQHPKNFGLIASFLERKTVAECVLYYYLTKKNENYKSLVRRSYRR
T4 sequence (Q13547 whole entry): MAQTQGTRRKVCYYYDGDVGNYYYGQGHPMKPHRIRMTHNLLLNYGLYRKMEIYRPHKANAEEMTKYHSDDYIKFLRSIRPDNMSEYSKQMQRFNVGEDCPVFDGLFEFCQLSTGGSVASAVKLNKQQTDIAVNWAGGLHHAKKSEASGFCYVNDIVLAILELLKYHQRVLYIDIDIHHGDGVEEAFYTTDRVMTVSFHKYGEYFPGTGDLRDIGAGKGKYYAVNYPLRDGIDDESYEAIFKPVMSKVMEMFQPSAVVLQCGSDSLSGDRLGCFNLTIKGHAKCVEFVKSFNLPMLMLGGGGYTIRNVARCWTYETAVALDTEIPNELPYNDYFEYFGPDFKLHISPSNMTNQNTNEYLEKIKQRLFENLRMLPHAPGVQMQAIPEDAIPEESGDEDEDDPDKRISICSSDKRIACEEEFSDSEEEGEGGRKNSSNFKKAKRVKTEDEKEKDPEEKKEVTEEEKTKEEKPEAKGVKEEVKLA

Question: With CC(=O)SCC/C=C/[C@@H]1CC(=O)NCc2cc(ccn2)C2=N[C@@](C)(CS2)C(=O)N[C@@H](C(C)C)C(=O)O1 [SD-L-256, reference compound] as the compound, how does the pIC50 ([1]; 10-point dose curve from 30 μM, read-out: KDAC Inhibition Activity (IC50) KDAC3) read?
Answer: 6.33

Question: And the IC50 ([1]; read-out: KDAC Inhibition Activity (pIC50) KDAC3 (converted))?
Answer: 479 nM

Question: What about the pIC50 ([2]; 10-point dose curve from 30 μM) of the same compound?
Answer: 5.79

Question: What about the pEC50 [3] of the same compound?
Answer: 5.80

Question: What about the inhibition at 30 µM [4] of the same compound?
Answer: 39%

Question: What about the pIC50 ([4]; 10-point dose curve from 30 μM) of the same compound?
Answer: < 4.52

Question: What about the pIC50 ([5]; 10-point dose curve from 30 μM) of the same compound?
Answer: 5.46

Question: With CCCCCCCC(=O)SCC/C=C/[C@@H]1CC(=O)NCc2nc(cs2)C2=N[C@@](C)(CS2)C(=O)N[C@@H](C(C)C)C(=O)O1 [Largazole, largazole] as the compound, how does the pEC50 [3] read?
Answer: 6.82

Question: And the inhibition at 30 µM [4]?
Answer: 28%

Question: What about the “reactivation of virus from latency, HIV-1 p24 ELISA in culture supernatants” value [6] of the same compound?
Answer: able to reactivate virus from latency

Question: And the pIC50 [5]?
Answer: 5.63

Question: What about the “potency against KDAC1, KDAC2, and KDAC3” value [7] of the same compound?
Answer: picomolar range

Question: What does the source list for “Cyclo-^DAsp(^DPro-Pro-Val)-NHCH2CH2SH [Compound 5b]”?
Answer: KDAC Inhibition Activity KDAC3 (% inhibition) [1]: Not active; KDAC Inhibition Activity KDAC6 (% inhibition) [2]: 23%; KDAC Inhibition Activity KDAC8 (% inhibition) [4]: 6%; KDAC Inhibition Activity KDAC1 (% inhibition) [5]: Not active

Question: With “Cyclo-^DAsp(Pro-^DPro-Val)-NHCH2CH2CH2SCH3 [Compound 19b]” as the compound, how does the “KDAC Inhibition Activity KDAC3 (% inhibition)” value [1] read?
Answer: Not active

Question: What about the “KDAC Inhibition Activity KDAC6 (% inhibition)” value [2] of the same compound?
Answer: Not active

Question: What about the “KDAC Inhibition Activity KDAC8 (% inhibition)” value [4] of the same compound?
Answer: 27%

Question: What about the “KDAC Inhibition Activity KDAC1 (% inhibition)” value [5] of the same compound?
Answer: 1%
